Test results reported in article PMC6917776, “Discovery of a chemical probe for PRDM9” (Nature Communications, 2019).
Read-outs that look alike come from different tables or passages of the source.

Assay: CelltiterGlo viability cell assay
Format: cell-based
Details: human
Outline: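 Dose range 0.01 μM to 30 μM, exposure 3 or 6 days. Read-out: CelltiterGlo, as a percentage of DMSO vehicle, averaged over three biological replicates with SEM.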

[1] = MDA-MB-436 breast cancer cells, MDA MB436, 3 day, read-out: viability Replicate 2
[2] = MDA-MB-436 breast cancer cells, MDA MB436, 3 day, read-out: viability Replicate 3
[3] = MDA-MB-436 breast cancer cells, MDA MB436, 3 day, read-out: viability Average
[4] = MDA-MB-436 breast cancer cells, MDA MB436, 3 day, read-out: viability Replicate 1
[5] = MDA-MB-436 breast cancer cells, MDA MB436, 6 day, read-out: viability Average
[6] = MDA-MB-436 breast cancer cells, MDA MB436, 6 day, read-out: viability Replicate 1
[7] = MDA-MB-436 breast cancer cells, MDA MB436, 6 day, read-out: viability Replicate 2
[8] = MDA-MB-436 breast cancer cells, MDA MB436, 6 day, read-out: viability Replicate 3
[9] = MDA-MB-436 cells, MDA MB436, 3 day, read-out: viability Replicate 1
[10] = MDA-MB-436 cells, MDA MB436, 3 day, read-out: viability Replicate 2
[11] = RPMI-8226 cells (multiple myeloma line), 8226, 3 day, read-out: viability Average
[12] = RPMI-8226 cells (multiple myeloma line), 8226, 3 day, read-out: viability Replicate 1
[13] = RPMI-8226 cells (multiple myeloma line), 8226, 3 day, read-out: viability Replicate 2
[14] = RPMI-8226 cells (multiple myeloma line), 8226, 3 day, read-out: viability Replicate 3
[15] = RPMI-8226 cells (multiple myeloma line), 8226, 6 day, read-out: viability Average
[16] = RPMI-8226 cells (multiple myeloma line), 8226, 6 day, read-out: viability Replicate 1
[17] = RPMI-8226 cells (multiple myeloma line), 8226, 6 day, read-out: viability Replicate 2
[18] = RPMI-8226 cells (multiple myeloma line), 8226, 6 day, read-out: viability Replicate 3
[19] = RPMI-8226 cells, 8226, 3 day, read-out: viability Average
[20] = RPMI-8226 cells, 8226, 3 day, read-out: viability Replicate 1
[21] = RPMI-8226 cells, 8226, 3 day, read-out: viability Replicate 2
[22] = RPMI-8226 cells, 8226, 3 day, read-out: viability Replicate 3
[23] = RPMI-8226 multiple myeloma cells, 8226, 3 day, read-out: viability Average

COc1cc(OC)cc(-c2noc(N3CCN(C)C4(CCN(c5ccnc(C)c5)CC4)C3)n2)c1 [MRK-740]
viability at 3 day, 0.01 µM [1]: 98.8%
viability at 3 day, 0.01 µM [2]: 92%
viability at 3 day, 0.03 µM [3]: 105%
viability at 3 day, 0.03 µM [4]: 124%
viability at 3 day, 0.03 µM [1]: 99.1%
viability at 3 day, 0.03 µM [2]: 92%
viability at 3 day, 0.3 µM [3]: 94.8%
viability at 3 day, 0.3 µM [2]: 92.8%
viability at 3 day, 1 µM [3]: 104%
viability at 3 day, 1 µM [4]: 114%
viability at 3 day, 1 µM [1]: 105%
viability at 3 day, 1 µM [2]: 93.4%
viability at 3 day, 3 µM [3]: 104%
viability at 3 day, 3 µM [4]: 120%
viability at 3 day, 3 µM [1]: 100%
viability at 3 day, 3 µM [2]: 91.2%
viability at 3 day, 9.5 µM [3]: 94.9%
viability at 3 day, 9.5 µM [4]: 108%
viability at 3 day, 9.5 µM [1]: 89.3%
viability at 3 day, 9.5 µM [2]: 87.6%
viability at 3 day, 30 µM [3]: 51.5%
viability at 3 day, 30 µM [4]: 60.8%
viability at 3 day, 30 µM [1]: 50%
viability at 3 day, 30 µM [2]: 43.6%
viability at 6 day, 0.01 µM [5]: 103%
viability at 6 day, 0.01 µM [6]: 97.8%
viability at 6 day, 0.01 µM [7]: 106%
viability at 6 day, 0.01 µM [8]: 107%
viability at 6 day, 0.03 µM [5]: 102%
viability at 6 day, 0.03 µM [6]: 99.8%
viability at 6 day, 0.03 µM [7]: 100%
viability at 6 day, 0.03 µM [8]: 106%
viability at 6 day, 0.1 µM [5]: 104%
viability at 6 day, 0.1 µM [6]: 105%
viability at 6 day, 0.1 µM [7]: 101%
viability at 6 day, 0.1 µM [8]: 106%
viability at 6 day, 0.3 µM [5]: 107%
viability at 6 day, 0.3 µM [6]: 108%
viability at 6 day, 0.3 µM [7]: 105%
viability at 6 day, 0.3 µM [8]: 109%
viability at 6 day, 1 µM [5]: 112%
viability at 6 day, 1 µM [6]: 109%
viability at 6 day, 1 µM [7]: 116%
viability at 6 day, 1 µM [8]: 111%
viability at 6 day, 3 µM [5]: 113%
viability at 6 day, 3 µM [6]: 115%
viability at 6 day, 3 µM [7]: 112%
viability at 6 day, 3 µM [8]: 112%
viability at 6 day, 9.5 µM [5]: 70.8%
viability at 6 day, 9.5 µM [6]: 69.6%
viability at 6 day, 9.5 µM [7]: 71%
viability at 6 day, 9.5 µM [8]: 71.9%
viability at 6 day, 30 µM [5]: 35.6%
viability at 6 day, 30 µM [6]: 34.7%
viability at 6 day, 30 µM [7]: 35.7%
viability at 6 day, 30 µM [8]: 36.5%
viability at 3 day, 0.1 µM (MDA-MB-436 cells, MDA MB436, 3 day, read-out: viability Average): 105%
viability at 3 day, 0.1 µM [9]: 123%
viability at 3 day, 0.1 µM [10]: 102%
viability at 3 day, 0.1 µM (MDA-MB-436 cells, MDA MB436, 3 day, read-out: viability Replicate 3): 90.1%
viability at 3 day, 0.3 µM [9]: 91.5%
viability at 3 day, 0.3 µM [10]: 100%
viability at 3 day, 9.5 µM [11]: 98.3%
viability at 3 day, 9.5 µM [12]: 105%
viability at 3 day, 9.5 µM [13]: 96.6%
viability at 3 day, 9.5 µM [14]: 93.4%
viability at 3 day, 30 µM [11]: 54.9%
viability at 3 day, 30 µM [12]: 74.2%
viability at 3 day, 30 µM [13]: 34.5%
viability at 3 day, 30 µM [14]: 56%
viability at 6 day, 0.01 µM [15]: 102%
viability at 6 day, 0.01 µM [16]: 101%
viability at 6 day, 0.01 µM [17]: 102%
viability at 6 day, 0.01 µM [18]: 102%
viability at 6 day, 0.03 µM [15]: 101%
viability at 6 day, 0.03 µM [16]: 100%
viability at 6 day, 0.03 µM [17]: 101%
viability at 6 day, 0.03 µM [18]: 102%
viability at 6 day, 0.1 µM [15]: 100%
viability at 6 day, 0.1 µM [16]: 96.9%
viability at 6 day, 0.1 µM [17]: 102%
viability at 6 day, 0.1 µM [18]: 102%
viability at 3 day, 0.01 µM [19]: 98.4%
viability at 3 day, 0.01 µM [20]: 97.7%
viability at 3 day, 0.01 µM [21]: 100%
viability at 3 day, 0.01 µM [22]: 97.6%
viability at 3 day, 0.03 µM [19]: 99.5%
viability at 3 day, 0.03 µM [20]: 97.9%
viability at 3 day, 0.03 µM [21]: 100%
viability at 3 day, 0.03 µM [22]: 100%
viability at 3 day, 0.1 µM [23]: 101%
viability at 3 day, 0.1 µM (RPMI-8226 multiple myeloma cells, 8226, 3 day, read-out: viability Replicate 1): 99.2%
viability at 3 day, 0.1 µM (RPMI-8226 multiple myeloma cells, 8226, 3 day, read-out: viability Replicate 2): 101%
viability at 3 day, 0.1 µM (RPMI-8226 multiple myeloma cells, 8226, 3 day, read-out: viability Replicate 3): 103%
viability at 3 day, 0.3 µM [23]: 102%
